Data on 18 molecules can be found in PubChem BioAssay (NCI).

“And” between values parts separate entries of the source, which are not always exact repeats. Identical values can stand only once.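 Cells were grown in 96-well plates and exposed to each compound for 48 hours at five concentrations; endpoints were interpolated linearly between bracketing concentrations, or set to the highest concentration if not reached. Abbreviation: GI50, concentration required for 50% inhibition of growth. The concentration for full growth arrest is given as TGI.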 Some results are limits rather than exact numbers.

Holding throughout (assay): inhibition of tumour cell growth, NCI panel, 48 h
Assay [1] deals with SN12C renal.
The test system of assay [2] is ACHN renal.
The subject of assay [3] is SNB-19 CNS.
Assay [4] concerns NCI-H460 lung.
Assay [5] has as its system EKVX NSCLC.
For assay [6], the system named is NCI-H23 lung.
Assay [7] concerns HOP-62 NSCLC.
In assay [8] the test system is 786-0 renal.
Assay [9] has as its system HCT-15 colon.
The subject of assay [10] is HCT-116 colon.

As for `CC(C)(C)OP(=O)(OC(C)(C)C)C(O)c1ccc(/C=C(\C#N)C(N)=O)cc1` (stereo not given), the TGI in [1], in assay [2], in assay [3], in assay [4], in assay [5] and in assay [6] was > 100 µM in each case. Further, the TGI in [7], in assay [8], in assay [9] and in assay [10] was > 100 µM in each case.
Regarding `Cc1cc(-c2nnc(/C=C/c3ccc4c(c3)OCO4)o2)n[nH]1`, the GI50 in [1] was 30 µM; in [2], 27.2 µM; in assay [3], 32.6 µM; in assay [4], 15.1 µM; in [5], 17.9 µM; in assay [6] it was 11.9 µM. Also, the GI50 in assay [7] was 17.5 µM; in assay [8] it was 16.7 µM; in [9] it was 11.4 µM; in assay [10] it was 11.9 µM. In addition, the TGI in [1], in assay [2], in assay [3], in assay [4], in assay [5] and in [6] was > 50 µM throughout. In addition, the TGI in assay [7], in assay [8], in assay [9] and in assay [10] was > 50 µM throughout.
Consider `CS(=O)(=O)Nc1cc(-c2ccc3ncnc(Nc4ccc(F)c(Cl)c4)c3c2)cnc1Cl`, for which the GI50 in assay [1] was 0.389 µM; in assay [2], 0.404 µM and 0.575 µM; in assay [3], 0.673 µM and 0.596 µM; in [4] it was 0.753 µM and 0.98 µM; in [5], 0.34 µM and 0.352 µM; in assay [6], 0.484 µM and 0.57 µM. Further, the GI50 in assay [7] is 0.295 µM and 1.12 µM; in assay [8], 0.638 µM and 0.671 µM; in assay [9], 0.559 µM and 0.542 µM; in assay [10] it was 0.783 µM and 0.946 µM. Moreover, the TGI in assay [1] was 12.7 µM; in assay [2], 13.8 µM and > 42.5 µM; in assay [3], 10.1 µM and 7.92 µM; in [4], 11.5 µM and 12.9 µM; in assay [5], 3.19 µM and 2.61 µM; in assay [6], 14.7 µM and 10.6 µM. Besides, the TGI in [7] was 9.01 µM and 27.1 µM; in assay [8], 5.45 µM and 6.65 µM; in assay [9], 11.2 µM and 11.6 µM; in [10], 3.22 µM and 5.22 µM.
`CC1(C)CCCC2(C)C3C(O)CC2(C)C(O)C31` (stereo not given): the TGI in [1], in assay [2], in [3], in [4], in [5] and in [6] was > 100 µM each time. Also, the TGI was > 100 µM in assay [7], 0.156 µM in assay [8], > 100 µM in [9] and > 100 µM in [10].
`O=c1c2ccccc2[nH]c2c(O)ccc(O)c12`: the TGI was 28.5 µM in assay [1]; 33.7 µM in [2]; > 100 µM in assay [3]; 50.9 µM in assay [4]; > 62.1 µM in [5]; 71.5 µM in [6]. Besides, the TGI was > 100 µM in assay [7], 38.8 µM in assay [8], 37.2 µM in assay [9] and 37.9 µM in assay [10].
Regarding `O=c1c2cc(Br)cc(Br)c2nc(CCCl)n1-c1ccc(O)c([N+](=O)[O-])c1`, the TGI worked out at 31.8 µM in assay [1]; 33.9 µM in assay [2]; 38.2 µM in assay [3]; 42.1 µM in assay [4]; 75.8 µM in assay [5]; 46.5 µM in assay [6]. For the same molecule, the TGI in assay [7] is 33 µM; in assay [8], 32.4 µM; in assay [9], 38.1 µM; in [10], 28.1 µM.
As to `C=C1C(=O)OC2C1C(OC(=O)/C(C)=C/C)CC(O)(CCl)C1C(O)C=C(C)C21O` (stereo not given), the TGI in assay [1] is 29.4 µM; in assay [2], 18.2 µM; in [3], > 64.2 µM; in assay [4], 36.2 µM; in assay [5] it was 29.9 µM; in assay [6] it was 28.3 µM. In addition, the TGI in [7] is > 67.2 µM; in [8], 18.4 µM; in assay [9], 14.4 µM; in [10] it was 18.9 µM.
Turning to `Cc1cc(C(=O)Nc2n[nH]c3ccccc23)n[nH]1`, the GI50 in assay [1], in [2], in assay [3], in assay [4], in assay [5] and in assay [6] was > 100 µM each time. For the same molecule, the GI50 in assay [7], in [8], in [9] and in assay [10] was > 100 µM each time. For the same molecule, the TGI in [1], in assay [2], in assay [3], in assay [4], in assay [5] and in assay [6] was > 100 µM each time. Moreover, the TGI in assay [7], in assay [8], in [9] and in [10] was > 100 µM each time.
With `C1OC1CN1CCN(CC2CO2)CC1` (stereo not given), the TGI was > 100 µM in assay [1]; > 100 µM in [2]; > 100 µM in assay [3]; > 100 µM in assay [4]; > 100 µM in [5]; > 81.2 µM in [6]. Moreover, the TGI is 69.7 µM in [7], > 100 µM in assay [8], > 100 µM in assay [9] and > 100 µM in assay [10].
On to `Cc1ccc(C(=O)NCCCOc2ccc(N3C(N)=NC(N)=NC3(C)C)cc2Cl)cc1S(=O)(=O)F`, for which the GI50 in assay [1] was 6.54 µM; in [2] it was > 100 µM; in assay [3], 75 µM; in assay [4], 8.44 µM; in assay [5], > 100 µM; in assay [6], 12.8 µM. The GI50 in assay [7] is > 100 µM; in assay [8], 80 µM; in assay [9] it was > 100 µM; in assay [10], 15 µM. For the same molecule, the TGI in assay [1], in assay [2], in assay [3], in assay [4], in [5] and in assay [6] was > 100 µM throughout. The TGI in [7], in [8], in assay [9] and in assay [10] was > 100 µM each time.
Turning to `Nc1c(C(=O)Nc2ccccn2)sc2nc3c(cc12)C(O)CCC3` (stereo not given), the GI50 was 2.57 µM in assay [1]; 10.7 µM in [2]; 2.13 µM in assay [3]; 1.88 µM in [4]; 3.29 µM in [5]; 3.05 µM in [6]. Besides, the GI50 in [7] is 2.9 µM; in assay [8] it was 1.95 µM; in [9] it was 1.69 µM; in assay [10], 1.72 µM. The TGI in assay [1], in [2], in assay [3], in [4], in assay [5] and in assay [6] was > 50 µM in each case. In addition, the TGI in assay [7], in assay [8], in assay [9] and in [10] was > 50 µM each time.
As to `O=C1Nc2cc(-c3cccc(O)c3)ccc2/C1=C/c1ccc[nH]1`, the GI50 was 1.6 µM in assay [1]; 0.515 µM in assay [2]; 3.5 µM in [3]; 0.46 µM in [4]; 0.121 µM in [5]; 0.182 µM in assay [6]. For the same molecule, the GI50 was 2.3 µM in assay [7], 2.22 µM in assay [8], 0.271 µM in assay [9] and 1.32 µM in assay [10]. Moreover, the TGI in [1] turned out to be 7.11 µM; in assay [2], 5.5 µM; in assay [3], 15.1 µM; in assay [4] it was 3.96 µM; in assay [5] it was 17 µM; in assay [6] it was 4.56 µM. Further, the TGI in [7] is 8.55 µM; in [8], 7.32 µM; in [9] it was 12.7 µM; in assay [10], 3.44 µM.
Regarding `CNC(=O)c1cc(Oc2cccc3nc(NC(=O)Nc4cc(C(F)(F)F)cc(C(F)(F)F)c4)ccc23)ccn1`, the GI50 is 5.27 µM in assay [1]; 3.8 µM in assay [2]; 5.31 µM in assay [3]; 4.16 µM in assay [4]; 4.46 µM in assay [5]; 6.15 µM in assay [6]. Moreover, the GI50 in assay [7] is 3.37 µM; in assay [8], 2.41 µM; in assay [9] it was 18.1 µM; in assay [10] it was 13.8 µM. The TGI in assay [1] is > 100 µM; in assay [2], 16.4 µM; in [3] it was 38 µM; in [4], 36.6 µM; in assay [5], 86.3 µM; in assay [6], 42.7 µM. For the same molecule, the TGI is 10.4 µM in assay [7], 5.73 µM in [8], > 100 µM in assay [9] and 41.8 µM in [10].
As for `CN(C)CCC(/C=C/c1ccccc1)=N\Nc1ccc(Cl)c(Cl)c1`, the TGI in assay [1] worked out at 13.7 µM; in assay [2] it was 4.49 µM; in assay [3] it was 20.2 µM; in assay [4], 4.25 µM; in assay [5], 13.1 µM; in assay [6], 8.93 µM. The TGI is 13.3 µM in assay [7], 9.26 µM in assay [8], 12.9 µM in assay [9] and 11.2 µM in assay [10].
As for `O=C(O)[C@@H]1OCCOCCO[C@@H](C(=O)O)[C@H](C(=O)O)OCCOCCO[C@H]1C(=O)O`, the TGI in [1], in assay [2], in [3], in assay [4], in assay [5] and in assay [6] was > 100 µM in each case. For the same molecule, the TGI in assay [7], in [8], in assay [9] and in assay [10] was > 100 µM in each case.
Take `CCOC(=O)C(=O)Nc1cc(Cl)c(Cl)cc1Cl`: the TGI in assay [1], in assay [2], in assay [3], in assay [4], in assay [5] and in assay [6] was > 100 µM in each case. In addition, the TGI in assay [7], in assay [8], in [9] and in assay [10] was > 100 µM in each case.
As for `CCCOc1cc2ccccc2cc1C(=O)Nc1nc(NC)c2c(ccc3nccc32)[nH]1`, the GI50 was 1.72 µM in [1]; 0.52 µM in [2]; 0.701 µM in [3]; 0.348 µM in assay [4]; 0.611 µM in assay [5]; 1.1 µM in assay [6]. The GI50 in assay [7] was 0.779 µM; in assay [8], 0.613 µM; in assay [9], 0.24 µM; in assay [10], 0.35 µM. In addition, the TGI in assay [1] is 3.48 µM; in assay [2] it was 1.91 µM; in assay [3] it was 2.23 µM; in assay [4], 1.13 µM; in [5] it was 2.04 µM; in assay [6], 2.53 µM. For the same molecule, the TGI in assay [7] was 2.28 µM; in assay [8], 2.07 µM; in [9], 1.03 µM; in assay [10], 1.24 µM.
For the molecule `CC(=O)Oc1ccc2c(c1)[C@@]1(C)CCCC(C)(C)[C@@H]1CC2`, the GI50 in assay [1] was 18.6 µM; in assay [2] it was 19.1 µM; in assay [3], 19.6 µM; in assay [4], 27.5 µM; in assay [5] it was 26 µM; in assay [6], 19.8 µM. Also, the GI50 in assay [7] was 15.9 µM; in assay [8], 18.1 µM; in assay [9] it was 19.5 µM; in [10] it was 18.4 µM. Besides, the TGI came out at 33.1 µM in assay [1]; 33.5 µM in assay [2]; 39.4 µM in assay [3]; 90.5 µM in [4]; 62.1 µM in assay [5]; 37.6 µM in assay [6]. Further, the TGI in [7] came to 30.2 µM; in assay [8], 32.8 µM; in assay [9], 37.3 µM; in assay [10] it was 32.8 µM.
